Experiments:
[1] = test system: Chlamydia trachomatis elementary bodies; assay: Lysis of Chlamydia trachomatis elementary bodies, read out by APA; settings: lysis buffer 0.4% SDS, pH 2.2, 2 minutes at 78° C.; compared with heat lysis 5 minutes at 95° C.
Procedure: Elementary body lysis (˜40/reaction) was probed in this example using an APA-based assay. Elementary bodies (Acrometrix) were added to either cold chlamydia transport media (SPD containing sucrose, phosphate buffer, and glutamic acid), TE (Tris-EDTA 10-1), or lysis buffer containing 0.4% SDS, pH 2.2. The samples in TE or SDS were heated 5 minutes at 95° C. (heat lysis) or 2 minutes at 78° C. (SDS lysis), respectively. Then 5 μl (containing 40 elementary bodies) was added to “wet” APA reaction mix as above (pH 7.6 to facilitate isothermal CAdNTP activation) containing 4% cyclodextrin HP-βCD for isothermal APA (68° C.) with fluorescence from a chlamydia-specific molecular beacon collected every 15 seconds.

9° Nm™ DNA polymerase = 9° Nm™ DNA polymerase (Thermococcus sp., UniProt Q56366, E143D); assay: Order-of-addition assay (APA of S. enterica DNA, SDS and hydroxypropyl β-CD); format: biochemical
9° Nm™ DNA polymerase, sequence (Q56366 whole entry E143D): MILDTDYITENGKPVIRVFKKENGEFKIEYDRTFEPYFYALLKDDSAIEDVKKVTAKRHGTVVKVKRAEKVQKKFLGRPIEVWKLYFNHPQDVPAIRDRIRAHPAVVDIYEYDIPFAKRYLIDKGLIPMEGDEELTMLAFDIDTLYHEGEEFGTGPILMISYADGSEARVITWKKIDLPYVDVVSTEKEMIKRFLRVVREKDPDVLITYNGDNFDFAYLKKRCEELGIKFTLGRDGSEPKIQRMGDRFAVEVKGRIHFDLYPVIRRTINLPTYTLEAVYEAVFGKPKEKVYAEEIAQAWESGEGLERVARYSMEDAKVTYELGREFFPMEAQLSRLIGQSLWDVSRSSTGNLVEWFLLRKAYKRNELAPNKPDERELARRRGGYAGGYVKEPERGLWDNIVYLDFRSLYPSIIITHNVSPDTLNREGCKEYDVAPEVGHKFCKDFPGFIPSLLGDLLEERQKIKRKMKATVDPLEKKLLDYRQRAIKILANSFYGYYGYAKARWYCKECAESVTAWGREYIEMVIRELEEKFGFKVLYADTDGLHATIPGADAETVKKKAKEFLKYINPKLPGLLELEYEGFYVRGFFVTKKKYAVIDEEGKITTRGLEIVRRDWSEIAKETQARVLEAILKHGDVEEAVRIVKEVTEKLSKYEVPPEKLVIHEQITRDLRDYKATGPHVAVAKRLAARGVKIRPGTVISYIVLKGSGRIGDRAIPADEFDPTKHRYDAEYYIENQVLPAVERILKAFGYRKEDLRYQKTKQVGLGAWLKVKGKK
Procedure: Order-of-addition assay: Detection time dependent on cyclodextrin addition prior to brief interaction of enzymes with SDS. Since SDS rapidly and irreversibly inactivated 9° Nm™ DNA polymerase, when the enzyme is instead simultaneously exposed to SDS and β-CD, the kinetics of complexation of the latter two substances must be very rapid, compared with the rate of interaction between SDS and the enzyme.
FIG. 6 depicts data related to detection of S. enterica DNA target (50,000 copies) by APA reactions in a wet “hot-start” format mediated by CleanAmp™ deoxynucleotides (CAdNTP) containing Tris pH7.6, KCl, (NH4)2SO4, MgSO4, Triton X-100, SYBRI, CAdNTP, 9° Nm™ DNA polymerase, with additions of 0.4% SDS (X), 4% hydroxypropyl β-CD (squares), SDS then immediately β-CD (circles), or β-CD then SDS (solid line) with mixing. Control (ctrl dotted line) was no additions. All samples included DNA target. Isothermal APA was at 68° C., collecting intercalating dye fluorescence every 15 seconds to monitor all exponential DNA amplification. […] Negative controls for each condition without S. enterica DNA confirmed specificity of indicated amplification products (not shown).

CCCCCCCCCCCCOS(=O)(=O)[O-].[Na+] [SDS, sodium dodecyl sulfate]
Liberation of target DNA from elementary bodies (lysis) [1]: as effective in liberating target DNA as the heat lysis
Effect on APA amplification (9° Nm™ DNA polymerase; 0.4% SDS alone, S. enterica DNA 50,000 copies): Barrier to amplification
Effect on 9° Nm™ DNA polymerase (9° Nm™ DNA polymerase; 0.4% SDS then immediately β-CD (brief exposure)): sufficient to inactivate

Reference: patent publication US20250154607A1, “ISOTHERMAL AMPLIFICATION OF PATHOGENS” (priority 2021, published 2025)
